Laboratory results published in patent US7498406B2, “Substantially cell membrane impermeable compound and use thereof” (priority 1999, dated 2009).
Entries after “also recorded” stand apart in the source; their conditions may differ.

Legend:
[1] = test system: BxPC-3 tumours; experiment: Histological analysis of BxPC-3 tumours (CD-31, PCNA, TUNEL); format: in vivo, SCID mice; conditions: for necrosis of treated tumours: not shown
Experimental: FIG. 26. Inhibition of angiogenesis in human pancreatic tumours by GSAO. Histological sections of the BxPC-3 tumours shown in part C of FIG. 23 from GSAA and GSAO-treated mice were analysed for angiogenesis (CD-31), proliferation (PCNA) and apoptosis (TUNEL).
The tumours shown in FIG. 23C were fixed in Buffered Formalde-Fresh (Fisher Scientific, Fair Lawn, N.J.), embedded in paraffin and […] sections were cut and placed on glass slides. Sections were stained with haematoxylin and eosin or for CD31, PCNA or fragmented DNA (TUNEL). Sections were incubated overnight at 4° C. with a […] of anti-mouse CD-31 antibody (PharMingen, San Diego, Calif.) followed by a 1:200 dilution of biotinylated anti-rat secondary antibody (Vestor, Burlingame, Calif.). The staining was enhanced by tyramide amplification (New England Nuclear, Boston, Mass.). Staining for PCNA was performed as described by Holmgren et al. (1995) while TUNEL labeling of fragmented DNA was performed according to Gavrielli et al. (1992).
Vascular density was determined by selecting 3 tumours, including the smallest and largest, from the control and treatment groups. […] The highest of the three counts was the value taken and two sections from each tumour was examined. The proliferative index was estimated by the percentage of cells scored under 400× magnification (Holmgren et al., 1995). A minimum of 1000 cells was counted in two separate sections. The apoptotic index was estimated by the percentage of cells scored under 400× magnification. A minimum of 1500 cells was counted in two separate sections (Holmgren et al., 1995).

[2] = test system: Lewis lung tumours; experiment: Tumour growth, oral administration in water; format: in vivo, C57Bl6/J mice; conditions: ~10 mg per kg per day in water
Experimental: FIG. 28. Inhibition of human pancreatic carcinoma and murine Lewis lung tumour growth by oral administration of GSAO. BxPC-3 or Lewis lung tumours were established in the proximal midline of female 7 to 9 week old SCID or C57Bl6/J mice, respectively, SCID mice bearing ˜0.5 g BxPC-3 tumours or C57Bl6/J mice bearing 0.1 g Lewis lung tumours were randomised into two groups (n=2 for BxPC-3 and n=3 for Lewis lung) and treated with either GSAA or GSAO (0.05 mg per mL) in their water. Mice drink ˜5 mL of water per day and therefore consumed ˜10 mg GSAO or GSM per kg per day. The water contained 100 mM glycine to minimise oxidation of GSAO. Tumour volume and animal weight was measured every 3 days. The data points and errors represent the mean and SE of the tumour volumes.
SCID mice bearing subcutaneous human pancreatic carcinoma tumours or C57Bl6/J mice bearing subcutaneous murine Lewis lung tumours were fed either ˜10 mg per kg per day GSAO or GSAA in their water.

[3] = format: in vivo, SCID mice; conditions: for macroscopic differences to untreated mice / morphological changes in heart, lungs, liver, kidneys, spleen: 10 mg per kg per day; for macroscopic differences to untreated mice: end of experiment; for morphological changes in heart, lungs, liver, kidneys, spleen: light microscopy (not shown); for adverse side effects of administration: 2 or 10 mg per kg per day, subcutaneous
Experimental: FIG. 24. […] The data points and errors represent the mean and SE of the animal weights for the experiment described in FIG. 23.
Female 7 to 9 week old SCID or C57Bl6/J mice were used (Massachusetts General Hospital, Boston, Mass.). Mice were held in groups of 3 to 5 at a 12 hour day and night cycle and were fed with animal chow and water ad libidum. SCID mice were anaesthetised by inhalation of isoflurane, the dorsal skin shaved and cleaned with ethanol, and a suspension of 2.5×10^6 BxPC-3 or HT1080 cells in 0.2 mL of DMEM was injected subcutaneously in the proximal midline. C57Bl6/J mice with Lewis lung carcinomas of 0.6-1.2 cm^3 volumes were sacrificed and the skin overlying the tumour was cleaned with betadine and ethanol. Tumour tissue was excised under aseptic conditions and a suspension of tumour cells in 0.9% saline was made by passage of tumour tissue through a sieve and a series of sequentially smaller 22- to 30-gauge hypodermic needles. C57Bl6/J mice were anaesthetised and prepared as for SCID mice and a suspension of Lewis lung carcinoma cells in 0.2 mL of saline was injected subcutaneously in the proximal midline. Tumours were allowed to establish and grow to a size of ˜0.1 cm^3 after which they were randomised into two groups. The tumours were measured in two diameters and tumour volume was calculated using the relationship, tumour volume=a×b^2×0.52, where a is the longest and b the shortest diameters in cm. Animals were treated with either GSAA or GSAO at doses of 2 or 10 mg per kg per day in 0.2 mL of PBS containing 100 mM glycine. The compounds were administered subcutaneously at a site distant from the tumour. Tumour volume and animal weight was measured every 3 days. The tumours were excised and weighed when the animals were sacrificed.
At the conclusion of the experiment described in FIG. 23B the mice from both treatment groups were examined. […] The heart, lungs, liver, kidneys, and spleen of the GSAA or GSAO-treated and untreated mice were fixed in formaldehyde, embedded in paraffin, sectioned, stained with haematoxylin and eosin and examined by light microscopy.

Row | Structure (SMILES) | necrosis of treated tumours [1] | reduction of the rate of Lewis lung tumour growth [2] | macroscopic differences to untreated mice [3] | morphological changes in heart, lungs, liver, kidneys, spleen [3] | adverse side effects of administration [3] | proliferative index of tumour cells (PCNA) ([1]; GSAO- vs GSAA-treated) | tumour angiogenesis (CD-31) ([1]; GSAO- vs GSAA-treated, 10 mg per kg per day, day 31, p<0.001) | apoptotic index of tumour cells (TUNEL) ([1]; GSAO- vs GSAA-treated, p=0.05)
1 | N[C@@H](CCC(=O)N[C@@H](CSCC(=O)Nc1ccc([As](=O)(O)O)cc1)C(=O)NCC(=O)O)C(=O)O [GSAA, 4-(N-(S-glutathionylacetyl)amino)phenylarsonic acid, reference compound] | no macroscopic or microscopic signs of necrosis | no significant effect | no apparent macroscopic differences | no obvious morphological changes | no apparent adverse side effects |  |  | 
2 | NC(CCC(=O)NC(CSCC(=O)Nc1ccc([As]=O)cc1)C(=O)NCC(=O)O)C(=O)O (stereo not shown) [GSAO, 4-(N-(S-glutathionylacetyl)amino)-phenylarsenoxide] | no macroscopic or microscopic signs of necrosis | ~50% | no apparent macroscopic differences | no obvious morphological changes | no apparent adverse side effects | no significant difference | marked suppression of angiogenesis; also recorded: marked reduction in angiogenesis | increase in the apoptotic index
